We go through eleven compounds from ChEMBL document CHEMBL1201862, “PubChem BioAssay data set” (2004).

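Following 48 hours of exposure in 96-well plates, responses at five concentrations were used to interpolate endpoints linearly. GI50: concentration for 50% inhibition of growth.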 Calls of active or inactive are those of the source. Rule as the data show it: active = GI50 up to about 1.1 µM and inactive = higher. A value given as a limit tells only on which side of the number the result lay.

Some test systems named below: ACHN; HL-60; Hs-578T; K562; KM12; LOX IMVI; MDA-MB-231; Malme-3M; OVCAR-3; OVCAR-4; SK-MEL-28; SN12C; SNB-19; SW-620; T47D; UACC-257; UACC-62; UO-31; SR.
Holding throughout (experiment): growth of human tumour cells (NCI), 48 h

For `CN(C)Cc1cc(O)c(O)c(CN(C)C)c1`, the GI50 was 34.5 µM (inactive) in the assay on ACHN; 24.8 µM (inactive) in the assay with HL-60; > 100 µM (inactive) in the assay on Hs-578T; 33 µM (inactive) with K562; 94.2 µM (inactive) with KM12; 36 µM (inactive) in the assay with LOX IMVI. In addition, the GI50 in the assay on MDA-MB-231 was > 100 µM (inactive); with Malme-3M, 31.3 µM (inactive); in the assay on OVCAR-3, 36.7 µM (inactive); in the assay on OVCAR-4, 42.5 µM (inactive); with SK-MEL-28, 51.9 µM (inactive); in the assay with SN12C, 36.9 µM (inactive). For the same compound, the GI50 in the assay with SNB-19 was 50.9 µM (inactive); in the assay with SW-620, 64.3 µM (inactive); with T47D it was 49.9 µM (inactive); in the assay with UACC-257, 17.3 µM (inactive); in the assay with UACC-62 it was 29.5 µM (inactive); in the assay with UO-31, 25.9 µM (inactive).
Take `O=C1c2ccccc2-n2c1nc1cc(Cl)ccc1c2=O`: the GI50 is > 100 µM (inactive) in the assay on ACHN; 20.2 µM (inactive) in the assay on Hs-578T; 4.05 µM (inactive) in the assay with K562; 39.9 µM (inactive) in the assay on KM12; 14 µM (inactive) with LOX IMVI; > 100 µM (inactive) in the assay on MDA-MB-231. Further, the GI50 in the assay with Malme-3M is 6.7 µM (inactive); in the assay with OVCAR-3, 23 µM (inactive); in the assay with OVCAR-4, 27.7 µM (inactive); in the assay with SN12C, > 100 µM (inactive); with SNB-19, > 100 µM (inactive); in the assay on SR, 6.62 µM (inactive). Moreover, the GI50 was 0.807 µM (active) in the assay on T47D, 9.68 µM (inactive) in the assay with UACC-257, 11.2 µM (inactive) in the assay with UACC-62 and > 100 µM (inactive) in the assay on UO-31.
For the compound `COc1ccc(NC(=S)Nc2cc(C)ccn2)cc1`, the GI50 in the assay on ACHN, in the assay on HL-60, with Hs-578T, in the assay on K562, in the assay on KM12 and in the assay with LOX IMVI was > 100 µM (inactive) throughout. Further, the GI50 in the assay with MDA-MB-231, with OVCAR-4, in the assay with SK-MEL-28, with SNB-19, with SR and in the assay on SW-620 was > 100 µM (inactive) throughout. In addition, the GI50 with T47D, in the assay on UACC-257, in the assay on UACC-62 and with UO-31 was > 100 µM (inactive) each time.
For the compound `CC(=O)OCCn1c(Cc2ccc(Cl)cc2)nn(C(C)=O)c1=O`, the GI50 in the assay on ACHN, with HL-60, with Hs-578T, with K562, in the assay with KM12 and with LOX IMVI was > 100 µM (inactive) each time. Further, the GI50 in the assay on MDA-MB-231, in the assay on Malme-3M, with OVCAR-3, with OVCAR-4, with SK-MEL-28 and in the assay with SN12C was > 100 µM (inactive) in each case. Moreover, the GI50 with SNB-19, in the assay on SW-620, with T47D, in the assay on UACC-257, in the assay on UACC-62 and in the assay on UO-31 was > 100 µM (inactive) each time.
In the case of `CSc1ncc2c(n1)-c1ccccc1OC2N1CCCC1` (stereo not given), the GI50 with ACHN was 60.8 µM (inactive); with HL-60, 52.7 µM (inactive); in the assay with Hs-578T it was 39.1 µM (inactive); in the assay on K562, 60.1 µM (inactive); in the assay on KM12, > 100 µM (inactive); in the assay on LOX IMVI, > 100 µM (inactive). Further, the GI50 in the assay with MDA-MB-231 is > 100 µM (inactive); with OVCAR-3 it was 47.4 µM (inactive); with OVCAR-4 it was 21 µM (inactive); with SN12C it was 71 µM (inactive); in the assay on SNB-19, > 100 µM (inactive); in the assay on SR, > 100 µM (inactive). Also, the GI50 in the assay with SW-620 was 94.8 µM (inactive); in the assay on T47D, 35.8 µM (inactive); in the assay with UACC-257 it was > 100 µM (inactive); with UACC-62 it was 26.4 µM (inactive); in the assay on UO-31, 42.4 µM (inactive).
Consider `N=C(N)NCCCC(NC(=O)OCCCCCCn1ccc(N)nc1=O)C(=O)O` (stereo not given), for which the GI50 with ACHN, in the assay with HL-60, in the assay on Hs-578T, in the assay on K562, with KM12 and in the assay on LOX IMVI was > 100 µM (inactive) in each case. For the same compound, the GI50 with MDA-MB-231, in the assay on OVCAR-3, in the assay with OVCAR-4, in the assay with SK-MEL-28, with SN12C and in the assay on SNB-19 was > 100 µM (inactive) throughout. In addition, the GI50 in the assay with SR, in the assay with SW-620, in the assay on T47D, in the assay with UACC-257, in the assay on UACC-62 and in the assay with UO-31 was > 100 µM (inactive) in each case.
In the case of `Clc1ccc(NCc2nnc(CCCCCCCCc3nnc(CNc4ccc(Cl)cc4)o3)o2)cc1`, the GI50 in the assay with ACHN, in the assay with Hs-578T, with K562, in the assay on KM12, with LOX IMVI and in the assay with MDA-MB-231 was > 100 µM (inactive) each time. Also, the GI50 with Malme-3M, in the assay on OVCAR-3, in the assay with OVCAR-4, with SN12C, in the assay on SNB-19 and in the assay with SR was > 100 µM (inactive) throughout. Further, the GI50 with T47D, in the assay on UACC-257, in the assay on UACC-62 and with UO-31 was > 100 µM (inactive) throughout.
As for `O=C(NC(CO)CO)c1ccc2cc(C(=O)N3CC(CCl)c4ccc([N+](=O)[O-])cc43)[nH]c2c1` (stereo not given), the GI50 in the assay with ACHN, in the assay with HL-60, in the assay with Hs-578T, in the assay on K562, in the assay on KM12 and in the assay on LOX IMVI was > 100 µM (inactive) each time. Moreover, the GI50 in the assay on MDA-MB-231 is 66.1 µM (inactive); in the assay with Malme-3M, > 100 µM (inactive); in the assay with OVCAR-3 it was > 100 µM (inactive); in the assay with OVCAR-4 it was > 100 µM (inactive); in the assay on SK-MEL-28 it was > 100 µM (inactive); with SN12C it was > 100 µM (inactive). The GI50 is > 100 µM (inactive) in the assay with SNB-19; > 100 µM (inactive) with SW-620; 0.619 µM (active) in the assay on T47D; > 100 µM (inactive) with UACC-257; > 100 µM (inactive) in the assay on UACC-62; > 100 µM (inactive) with UO-31.
Consider `CCOC(=O)C(C)c1nc2cc(F)c(N3CCOCC3)cc2[nH]c1=O` (stereo not given), for which the GI50 in the assay on ACHN, in the assay on Hs-578T, in the assay with K562, with KM12, with MDA-MB-231 and with Malme-3M was > 100 µM (inactive) in each case. Further, the GI50 with OVCAR-3, in the assay on OVCAR-4, with SK-MEL-28, in the assay with SN12C, in the assay on SNB-19 and in the assay with SR was > 100 µM (inactive) each time. Also, the GI50 was > 100 µM (inactive) with SW-620; 51.9 µM (inactive) in the assay with T47D; > 100 µM (inactive) in the assay with UACC-257; > 100 µM (inactive) in the assay on UACC-62; > 100 µM (inactive) in the assay with UO-31.
Consider `COc1ccc(OC)c2c1C1CCC(=O)N1CN2C(C)=O` (stereo not given), for which the GI50 in the assay with ACHN, in the assay on HL-60, in the assay with Hs-578T, in the assay with K562, in the assay on KM12 and with LOX IMVI was > 100 µM (inactive) each time. For the same compound, the GI50 in the assay with MDA-MB-231, in the assay on Malme-3M, in the assay on OVCAR-3, in the assay on OVCAR-4, with SK-MEL-28 and in the assay on SN12C was > 100 µM (inactive) each time. Also, the GI50 in the assay with SNB-19, with SW-620, in the assay on T47D, in the assay with UACC-257, in the assay with UACC-62 and with UO-31 was > 100 µM (inactive) in each case.
As to `CN(C)c1ccc(/C=N/NC(=S)Nc2ccccc2)cc1`, the GI50 in the assay on ACHN, in the assay on Hs-578T, with K562, in the assay on KM12, in the assay on LOX IMVI and in the assay on MDA-MB-231 was > 100 µM (inactive) each time. Further, the GI50 in the assay on Malme-3M, in the assay on OVCAR-3, with OVCAR-4, in the assay with SK-MEL-28, with SN12C and in the assay on SNB-19 was > 100 µM (inactive) throughout. The GI50 in the assay with SR, in the assay with SW-620, with T47D, in the assay with UACC-257, with UACC-62 and in the assay with UO-31 was > 100 µM (inactive) in each case.
